From ChEMBL document CHEMBL5137008, “Recent advances of antitumor shikonin/alkannin derivatives: A comprehensive overview focusing on structural classification, synthetic approaches, and mechanisms of action” (Eur J Med Chem, 2022)

Columns and labels:
SBcl2 = assay: Antitumor activity against human SBcl2 cells assessed as reduction in cell viability incubated for 72 hrs by XTT assay; type: functional, cell-based; settings: SBcl2, 72 h
[1] = Antitumor activity against human WM9 cells assessed as reduction in cell viability incubated for 72 hrs by XTT assay; type: functional, cell-based; settings: WM9, 72 h
WM164 = assay: Antitumor activity against human WM164 cells assessed as reduction in cell viability incubated for 72 hrs by XTT assay; type: functional, cell-based; settings: WM164, 72 h
MUGMel2 = assay: Antitumor activity against human MUG-Mel2 cells assessed as reduction in cell viability incubated for 72 hrs by XTT assay; type: functional, cell-based; settings: MUGMel2, 72 h
U-87 MG [2] = assay: Anticancer activity against human U87 cells assessed as inhibition of cell proliferation incubated for 48 hrs by MTT assay; type: functional, cell-based, U-87MG ATCC
SMMC-7721 [3] = assay: Anticancer activity against human SMMC-7721 cells assessed as inhibition of cell proliferation incubated for 48 hrs by MTT assay; type: functional, cell-based; settings: SMMC-7721, 48 h
SGC-7901 [4] = assay: Anticancer activity against human SGC-7901 cells assessed as inhibition of cell proliferation incubated for 48 hrs by MTT assay; type: functional, cell-based; settings: SGC-7901, 48 h
MGC-803 [5] = assay: Anticancer activity against human MGC-803 cells assessed as inhibition of cell proliferation incubated for 48 hrs by MTT assay; type: functional, cell-based; settings: MGC-803, 48 h
L1210 [6] = assay: Anticancer activity against mouse L1210 cells assessed as reduction in cell viability for 72 hrs by MTT assay; type: functional; settings: read-out: ED50 (the source's name)
SNU1 = assay: Anticancer activity against human SNU1 cells assessed as reduction in cell viability for 72 hrs by MTT assay; type: functional, cell-based; settings: SNU1, 72 h
L1210 [7] = assay: Anticancer activity against mouse L1210 cells; type: functional; settings: read-out: ED50 (the source's name)
A549 [8] = assay: Anticancer activity against human A549 cells; type: functional; settings: read-out: ED50 (the source's name)
Sarcoma-180 = assay: Antitumor activity against mouse Sarcoma-180 cells xenografted in ip dosed ICR mouse assessed as tumor growth inhibition rate administered daily for 7 days relative to control; type: functional; settings: time 7 day
HeLa = assay: Antiproliferative activity against human HeLa cells assessed as inhibition of cell growth incubated for 24 hrs by MTT assay; type: functional, cell-based
MDA-MB-231 = assay: Antiproliferative activity against human MDA-MB-231 cells assessed as inhibition of cell growth incubated for 24 hrs by MTT assay; type: functional, cell-based; settings: MDA-MB-231, 24 h
A549 [9] = assay: Antiproliferative activity against human A549 cells assessed as inhibition of cell growth incubated for 24 hrs by MTT assay; type: functional, cell-based; settings: A549, 24 h
U-87 MG [10] = assay: Anticancer activity against human U87 cells incubated for 48 hrs by MTT assay; type: functional, cell-based, U-87MG ATCC
SMMC-7721 [11] = assay: Anticancer activity against human SMMC-7721 cells incubated for 48 hrs by MTT assay; type: functional, cell-based; settings: SMMC-7721, 48 h
SGC-7901 [12] = assay: Anticancer activity against human SGC-7901 cells incubated for 48 hrs by MTT assay; type: functional, cell-based; settings: SGC-7901, 48 h
MGC-803 [13] = assay: Anticancer activity against human MGC-803 cells incubated for 48 hrs by MTT assay; type: functional, cell-based; settings: MGC-803, 48 h
[14] = Cytotoxicity against human L02 cells incubated for 48 hrs by MTT assay; type: toxicity, cell-based
HCT-15 = assay: Anticancer activity against human HCT-15 cells incubated for 72 hrs by MTT assay; type: functional, cell-based; settings: HCT-15, 72 h
MCF7 = assay: Anticancer activity against human MCF7 cells incubated for 72 hrs by MTT assay; type: functional, cell-based; settings: MCF7, 72 h
MGC-803 [15] = assay: Anticancer activity against human MGC-803 cells incubated for 72 hrs by MTT assay; type: functional, cell-based; settings: MGC-803, 72 h
Fibroblast = assay: Cytotoxicity against human skin fibroblast cells incubated for 72 hrs by MTT assay; type: functional, cell-based
Ca9-22 [16] = assay: Cytotoxicity against human Ca9-22 cells assessed as reduction in cell viability incubated for 24 hrs by MTT assay; type: functional, cell-based; settings: Ca9-22, 24 h
Ca9-22 [17] = assay: Cytotoxicity against human Ca9-22 cells assessed as reduction in cell viability incubated for 48 hrs by MTT assay; type: functional, cell-based; settings: Ca9-22, 48 h

Q: With `CC(C)=CC[C@@H](OC(=O)C=C(C)C)C1=CC(=O)c2c(O)ccc(O)c2C1=O` [DIMETHYLACRYLSHIKONIN] as the molecule, how does the IC50 (SBcl2) read?
A: 1100 nM

Q: What about the IC50 [1] of the same molecule?
A: 2700 nM

Q: What about the IC50 (WM164) of the same molecule?
A: 8300 nM

Q: What about the IC50 (MUGMel2) of the same molecule?
A: 7200 nM

Q: For `COc1cccc2c1C(=O)c1c(O)c3c(c(O)c1C2=O)C[C@@](O)(C(=O)CO)C[C@@H]3O[C@H]1C[C@H](N)[C@H](O)[C@H](C)O1.Cl` [DOXORUBICIN HYDROCHLORIDE], which IC50 (U-87 MG [2]) is on record?
A: 570 nM

Q: What about the IC50 (SMMC-7721 [3]) of the same molecule?
A: 460 nM

Q: And the IC50 (SGC-7901 [4])?
A: 720 nM

Q: And the IC50 (MGC-803 [5])?
A: 480 nM

Q: And the EC50 (L1210 [6])?
A: 0.07 µg/mL

Q: What about the IC50 (SNU1) of the same molecule?
A: 2010 nM

Q: And the EC50 (L1210 [7])?
A: 0.016 µg/mL

Q: And the EC50 (A549 [8])?
A: 1.01 µg/mL

Q: What about the T/C (Sarcoma-180) of the same molecule?
A: 315%

Q: For `COc1cccc2c1C(=O)c1c(O)c3c(c(O)c1C2=O)C[C@@](O)(C(=O)CO)C[C@@H]3O[C@H]1C[C@H](N)[C@H](O)[C@H](C)O1` [DOXORUBICIN], which IC50 (HeLa) is on record?
A: 4610 nM

Q: What about the IC50 (MDA-MB-231) of the same molecule?
A: 4210 nM

Q: What about the IC50 (A549 [9]) of the same molecule?
A: 5130 nM

Q: What about the IC50 (U-87 MG [10]) of the same molecule?
A: 570 nM

Q: What about the IC50 (SMMC-7721 [11]) of the same molecule?
A: 460 nM

Q: And the IC50 (SGC-7901 [12])?
A: 720 nM

Q: What about the IC50 (MGC-803 [13]) of the same molecule?
A: 480 nM

Q: And the IC50 at 48 h [14]?
A: > 100000 nM

Q: Which IC50 (HCT-15) does the source give for `O=c1[nH]cc(F)c(=O)[nH]1` [FLUOROURACIL] here?
A: 8240 nM

Q: What about the IC50 (MCF7) of the same molecule?
A: 29500 nM

Q: What about the IC50 (MGC-803 [15]) of the same molecule?
A: > 50000 nM

Q: What about the IC50 (Fibroblast) of the same molecule?
A: > 50000 nM

Q: With `CC(C)=CC[C@@H](OC(=O)C(C)C)C1=CC(=O)c2c(O)ccc(O)c2C1=O` [ISOBUTYLSHIKONIN] as the molecule, how does the IC50 (Ca9-22 [16]) read?
A: 1980 nM

Q: And the IC50 (Ca9-22 [17])?
A: 1800 nM
